One data set deals with H9 cells. The data set can be described thus: Survival/viability of HIV-infected H9 cells (trypan blue exclusion), % control. As to conditions: for viability at 0.1 µg/mL / viability at 1 µg/mL / viability at 10 µg/mL / viability at 0.01 µg/mL / viability at 5 µg/mL: Homo sapiens, H9, 96 h, read-out: Cell Survival (% Control); for viability of cells in the presence of HIV (in words): in vitro.

In a further data set the test system is target cells. The data set can be described thus: Toxicity to the cells. Type of data set: cell-based.
The next data set deals with HIV virus. The following applies: for activity against HIV / inhibition of viral replication (in words): in vitro; for inhibition of viral replication (in words): about 1 μg/ml.
The next data set is described as follows: Solubility. Type of data set: physicochemical. The following applies: Tables I-III.

Entries after “also recorded” stand apart in the source; their conditions may differ.

Turning to `C[C@@H]1[C@H](O)[C@@H](C)/C=C/C=C/CC/C=C/C=C/C=C/C=C/[C@H](O[C@@H]2O[C@H](C)[C@@H](O)[C@H](N)[C@@H]2O)C[C@@H]2O[C@](O)(C[C@@H](O)C[C@@H](O)[C@H](O)CC[C@@H](O)C[C@@H](O)CC(=O)O[C@H]1C)C[C@H](O)[C@H]2C(=O)O` [Amphotericin A, reference compound], the “Cell Survival (% Control)” value in the data set on H9 cells (Table IV, conc. not printed (line between 10 and 0.1), added with HIV, 4 days) worked out at 75 % Control.

For the compound Candicidin, the “toxicity to the cells (in words)” value in the data set with target cells was “toxic to the cells; also recorded: its own cytotoxic effects takes its toll on the target cells”. The “effect against HIV infection at noncytotoxic doses (in words)” value in the data set with HIV virus is reported as “no advantage whatsoever is seen”.

With `CCCCC[C@@H](O)[C@H]1C(=O)O[C@H](C)[C@@H](O)/C=C/C=C/C=C/C=C/C=C(\C)[C@@H](O)C[C@H](O)C[C@H](O)C[C@H](O)C[C@H](O)C[C@H](O)C[C@@H]1O` [Filipin, reference compound], in the data set with H9 cells, the viability at 0.1 µg/mL amounted to 48%, the viability at 1 µg/mL amounted to 51% and the viability at 10 µg/mL is 49%. Further, the “activity against HIV / inhibition of viral replication (in words)” value (shortened to “activity against HIV / inhibition”) in the data set with HIV virus is “not active against HIV”.

Turning to `CC(C)C1OC(=O)/C=C/C=C/C=C/C=C/C=C/C=C/CC(O)C(C)C(O)CC(O)CC(O)CC(O)CC(O)CC(O)CC(O)CC(O)/C=C/C1C` (stereo not drawn) [Dermostatin A], in the data set on H9 cells, the viability at 0.01 µg/mL is 0%, the viability at 0.1 µg/mL turned out to be 18%, the viability at 1 µg/mL amounted to 92% and the viability at 5 µg/mL was 99%. The “viability of cells in the presence of HIV (in words)” value with H9 cells is on record as “improve the viability of lymphocyte cells in the presence of HIV; also recorded: protective effect”. In the data set with HIV virus, the “inhibition of viral replication (in words)” value is “high levels of inhibition to viral replication have been achieved” and the “activity against HIV / inhibition” value is reported as “inhibit the ability of the HIV virus to replicate within the lymphocyte after penetration by the virus”. Besides, in “Solubility”, the Solubility result is recorded as “Soluble in MeOH, DMSO, DMF; also recorded: Insoluble in H2 O, pet ether, hexane”.

In the case of `CCC(C)C1OC(=O)/C=C/C=C/C=C/C=C/C=C/C=C/CC(O)C(C)C(O)CC(O)CC(O)CC(O)CC(O)CC(O)CC(O)CC(O)/C=C/C1C` (stereo not drawn) [Dermostatin B], in the data set on H9 cells, the viability at 0.01 µg/mL came to 0%, the viability at 0.1 µg/mL was 0%, the viability at 1 µg/mL stood at 87% and the viability at 5 µg/mL worked out at 97%. In addition, in the data set with H9 cells, the “viability of cells in the presence of HIV (in words)” value was “improve the viability of lymphocyte cells in the presence of HIV; also recorded: protective effect”. For the same compound, in the data set on HIV virus, the “inhibition of viral replication (in words)” value is reported as “high levels of inhibition to viral replication have been achieved” and the “activity against HIV / inhibition” value was “inhibit the ability of the HIV virus to replicate within the lymphocyte after penetration by the virus”. For the same compound, the Solubility result in the data set “Solubility” is “Soluble in MeOH, DMSO, DMF; also recorded: Insoluble in H2 O, pet ether, hexane”.

Turning to `C[C@@H]1[C@H](O)[C@@H](C)/C=C/C=C/C=C/C=C/C=C/C=C/C=C/[C@H](O[C@@H]2O[C@H](C)[C@@H](O)[C@H](N)[C@@H]2O)C[C@@H]2O[C@](O)(C[C@@H](O)C[C@@H](O)[C@H](O)CC[C@@H](O)C[C@@H](O)CC(=O)O[C@H]1C)C[C@H](O)[C@H]2C(=O)O` [Amphotericin B, reference compound], in the data set on H9 cells, the viability at 0.01 µg/mL is 13%, the viability at 0.1 µg/mL worked out at 11%, the viability at 1 µg/mL worked out at 33% and the viability at 10 µg/mL was determined as 73%.

The values above are taken from patent US5159002A, “Method for purifying dermostatin A and dermostatin B” (Xechem Inc., priority 1990, dated 1992).
